Assay results as given in patent US20250213558A1, “T-TYPE CALCIUM CHANNEL MODULATORS COMPRISING A PIPERAZINE OR 1,4-DIAZEPANE CORE AND METHODS OF USE THEREOF” (Praxis Precision Medicines, Inc., priority 2022, published 2025).
Like-named read-outs stand apart in the source and are kept apart here.

Target: T1, Human Cav3.1 calcium channel (Homo sapiens, UniProt O43497)
T1 construct: expressed in transfected cells; host or cells: HEK-293 natClytin/TASK1+Cav3.1 cell line
Experiment: Human Cav3.1 calcium channel patch clamp assay (SyncroPatch 384PE; single point and IC50, voltage dependent block)
Assay type: cell-based
Conditions: for % Inhibition (Single Point Data): patch clamp
Method in brief: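 Automated whole-cell patch clamp at room temperature, cells held at −120 mV; 100 ms step to −20 mV (resting block), then 1600 ms at −65 mV and a second −20 mV step (voltage-dependent block), every 15 s. Peak currents averaged over last 3 sweeps; % inhibition relative to nickel-sensitive current.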

[1] = Testing Conc 1.25, HEK-293 natClytin/TASK1+Cav3.1 cell line
[2] = voltage dependent block (VDB), HEK-293 natClytin/TASK1+Cav3.1 cell line, read-out: Cav3.1 IC50
[3] = Testing Conc 1, HEK-293 natClytin/TASK1+Cav3.1 cell line

T1 sequence (O43497 whole entry): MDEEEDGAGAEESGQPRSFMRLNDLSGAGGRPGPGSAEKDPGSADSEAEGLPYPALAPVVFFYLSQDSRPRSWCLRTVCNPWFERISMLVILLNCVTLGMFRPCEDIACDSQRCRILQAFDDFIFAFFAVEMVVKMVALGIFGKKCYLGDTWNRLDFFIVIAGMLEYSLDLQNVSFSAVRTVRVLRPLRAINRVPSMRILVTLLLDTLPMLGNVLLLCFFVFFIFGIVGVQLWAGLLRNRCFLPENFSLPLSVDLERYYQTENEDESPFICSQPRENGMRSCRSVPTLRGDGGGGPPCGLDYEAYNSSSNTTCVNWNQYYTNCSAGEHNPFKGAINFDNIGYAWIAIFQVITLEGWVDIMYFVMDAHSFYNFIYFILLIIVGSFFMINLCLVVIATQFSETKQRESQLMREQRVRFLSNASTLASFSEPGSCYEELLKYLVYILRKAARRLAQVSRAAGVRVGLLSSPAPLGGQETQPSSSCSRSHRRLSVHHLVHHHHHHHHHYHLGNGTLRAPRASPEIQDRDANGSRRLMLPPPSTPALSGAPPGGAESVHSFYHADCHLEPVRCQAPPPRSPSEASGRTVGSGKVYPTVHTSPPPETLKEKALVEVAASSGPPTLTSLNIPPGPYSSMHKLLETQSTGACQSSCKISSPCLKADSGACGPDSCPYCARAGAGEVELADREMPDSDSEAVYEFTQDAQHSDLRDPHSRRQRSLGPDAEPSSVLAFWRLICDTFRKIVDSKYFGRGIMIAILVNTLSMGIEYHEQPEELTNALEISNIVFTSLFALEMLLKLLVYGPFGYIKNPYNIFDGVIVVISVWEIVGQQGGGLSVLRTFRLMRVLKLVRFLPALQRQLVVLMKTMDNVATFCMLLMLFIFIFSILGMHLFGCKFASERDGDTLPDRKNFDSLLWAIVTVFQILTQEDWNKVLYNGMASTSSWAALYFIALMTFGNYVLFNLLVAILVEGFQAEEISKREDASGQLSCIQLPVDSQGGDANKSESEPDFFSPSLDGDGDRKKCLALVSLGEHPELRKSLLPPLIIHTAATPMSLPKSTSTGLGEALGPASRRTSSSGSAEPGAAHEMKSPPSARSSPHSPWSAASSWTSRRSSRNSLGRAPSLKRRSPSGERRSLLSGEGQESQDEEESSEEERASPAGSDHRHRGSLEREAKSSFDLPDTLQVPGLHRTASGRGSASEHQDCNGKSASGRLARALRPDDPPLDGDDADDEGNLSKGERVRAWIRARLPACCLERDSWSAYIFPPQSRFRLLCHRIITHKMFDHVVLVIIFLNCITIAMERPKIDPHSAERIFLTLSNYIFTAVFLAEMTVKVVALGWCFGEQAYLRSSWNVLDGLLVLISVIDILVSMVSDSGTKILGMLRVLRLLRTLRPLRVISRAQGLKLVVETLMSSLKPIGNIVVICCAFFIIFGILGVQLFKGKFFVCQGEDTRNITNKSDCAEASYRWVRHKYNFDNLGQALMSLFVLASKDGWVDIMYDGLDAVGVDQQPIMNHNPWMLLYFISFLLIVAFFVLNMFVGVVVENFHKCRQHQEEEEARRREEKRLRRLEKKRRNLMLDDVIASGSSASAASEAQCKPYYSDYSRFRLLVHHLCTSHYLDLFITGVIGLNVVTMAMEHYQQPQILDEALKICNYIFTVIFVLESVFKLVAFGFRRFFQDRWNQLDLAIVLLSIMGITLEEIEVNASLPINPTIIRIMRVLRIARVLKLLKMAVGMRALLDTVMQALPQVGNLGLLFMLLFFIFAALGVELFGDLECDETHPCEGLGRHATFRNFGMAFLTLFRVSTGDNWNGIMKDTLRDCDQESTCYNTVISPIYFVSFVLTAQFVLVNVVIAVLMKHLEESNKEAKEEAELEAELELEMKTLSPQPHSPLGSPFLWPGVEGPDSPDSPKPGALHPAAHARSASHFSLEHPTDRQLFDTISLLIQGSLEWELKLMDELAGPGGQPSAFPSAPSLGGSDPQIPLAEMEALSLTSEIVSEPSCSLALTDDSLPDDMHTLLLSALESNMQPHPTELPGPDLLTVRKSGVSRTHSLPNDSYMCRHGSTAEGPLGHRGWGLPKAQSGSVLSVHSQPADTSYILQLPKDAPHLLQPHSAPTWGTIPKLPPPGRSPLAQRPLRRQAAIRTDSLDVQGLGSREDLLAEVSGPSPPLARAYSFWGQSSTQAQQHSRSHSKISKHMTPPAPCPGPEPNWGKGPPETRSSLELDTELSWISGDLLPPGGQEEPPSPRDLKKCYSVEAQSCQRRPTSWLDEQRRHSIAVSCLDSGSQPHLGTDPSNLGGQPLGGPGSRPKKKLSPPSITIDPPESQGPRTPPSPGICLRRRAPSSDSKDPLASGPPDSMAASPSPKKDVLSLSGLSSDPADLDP

Row | SMILES | % Inhibition (Single Point Data) [1] [%] | IC50 [2] [µM] | IC50 [µM] | % Inhibition (Single Point Data) [3] [%]
1 | CC1(C)CC(CN2C[C@@H]3C[C@H]2CN3CC(=O)NC23CC4CC(CC(C4)C2)C3)CCO1 (some centres unmarked) [Compound 298] | 26.791 | 2.08 |  | 
2 | CC1(C)CCC(=O)N1CCN1C2CC1CN(Cc1nc3c(Cl)cc(F)cc3[nH]1)C2 [Compound 150] | 66.439 | 0.652 |  | 
3 | CC1(CCN2C3CC2CN(Cc2nc4c(Cl)cc(F)cc4[nH]2)C3)CCOCC1 [Compound 105] | 73.309 |  |  | 
4 | O=C(CN1CC2CC1CN2CC(=O)NC1(C(F)(F)F)CC1)Nc1ccc(F)c(Cl)c1 (centres unmarked) [Compound 238] | 79.048 |  |  | 
5 | [2H]C([2H])([2H])C(NC(=O)CN1CC2CC1CN2CC(=O)Nc1cc(F)cc(Cl)c1)(C([2H])([2H])[2H])C([2H])([2H])[2H] (centres unmarked) [Compound 57] | 95.078 |  |  | 
6 | CC(C)(C)NC(=O)CN1C2CCC1CN(Cc1c[nH]c(-c3ccccc3)n1)C2 [Compound 197] | 45.013 | 1.54 |  | 
7 | COc1ccc(F)cc1NC(=O)CN1CC2CC(C1)N2CC(=O)NC(C)(C)C [Compound 218] | 36.544 | 2.89 |  | 
8 | CC(C)(C)NC(=O)CN1C2COCC1CN(Cc1nc3c(Cl)cc(F)cc3[nH]1)C2 [Compound 148] | 11.572 |  |  | 
9 | CC(C)(C)CCN1CCN(Cc2nc3c(Cl)cc(F)cc3[nH]2)CC1 [Compound 73] | 84.745 | 0.188 |  | 
10 | O=C(NCCN1C2CC1CN(Cc1nc3c(Cl)cc(F)cc3[nH]1)C2)C1(C(F)(F)F)CC1 [Compound 135] | 101.33 | 0.156 |  | 
11 | CN(C(=O)CN1C2CC1CN(Cc1nc3c(Cl)cc(F)cc3[nH]1)C2)C1CCCC1 [Compound 110] | 91.767 |  | < 0.0782 | 
12 | CC1(C)CN(C(=O)CN2C[C@@H]3C[C@H]2CN3CC(=O)NC23CC4CC(CC(C4)C2)C3)C1 [Compound 317] | 48.399 | 1.08 |  | 
13 | Cc1cc(F)cc(NC(=O)CN2CC3CC(C2)N3CC(=O)NC2(C(F)(F)F)CC2)c1 [Compound 335] | 84.646 | 0.338 |  | 
14 | CC(C)(C)NC(=O)CN1CCCN(CC(=O)Nc2cc(F)cc(Cl)c2)CC1 [Compound 34] |  |  |  | 51.943
15 | Fc1cc(Cl)c2nc(CN3CCN(CC(F)(F)C4CCCC4)CC3)[nH]c2c1 [Compound 160] | 73.495 | 0.652 |  | 
16 | CC(C)(C)NC(=O)CN1C[C@H]2CC[C@@H]1CN2CC(=O)Nc1ccc(F)c(Cl)c1 [Compound 269] | 62.186 | 0.888 |  | 
17 | O=C(CN1CC2CC(C1)N2CC(=O)NC1(C(F)(F)F)CC1)NC12CC3CC(CC(C3)C1)C2 [Compound 281] | 54.316 | 0.9 |  | 
18 | CC(C)(C)NC(=O)CN1C2CCC1CN(Cc1nc3c(Cl)cc(F)cc3[nH]1)C2 [Compound 64] | 100.15 |  | < 0.0782 | 
19 | Cc1cc(F)cc(NC(=O)CN2CC3CC(C2)N3CC(=O)NC(C)(C)C)c1 [Compound 215] | 100 |  |  | 
20 | CC(C)(NC(=O)CN1C2CC1CN(Cc1nc3c(Cl)ccc(F)c3[nH]1)C2)C(F)(F)F [Compound 181] | 102.49 |  | 0.0423 | 
21 | COc1cc(F)cc(NC(=O)CN2CC3CC(C2)N3CC(=O)NC(C)(C)C)c1 [Compound 211] | 81.284 | 0.233 |  | 
22 | O=C(CN1CCN(CC(=O)NC2(C(F)(F)F)CC2)CC1)Nc1cc(F)cc(OC(F)F)c1 [Compound 54] | 39.211 | 1.56 |  | 
23 | COc1cc(NC(=O)CN2C[C@@H]3C[C@H]2CN3CC(=O)NC2(C(F)(F)F)CC2)ccc1F [Compound 311] | 83.804 | 0.385 |  | 
24 | O=C(CN1CC2CC(C1)N2CCNC(=O)C1(C(F)(F)F)CCC1)Nc1ccc(F)c(Cl)c1 [Compound 17] | 99.317 |  | < 0.0782 | 
25 | CC(C)(C)NC(=O)CN1C2CCC1CN(Cc1ncc3ccccc3n1)C2 [Compound 186] | 5.7091 |  |  | 
26 | Cc1cc(CNC(=O)CN2C[C@@H]3C[C@H]2CN3CC(=O)NC(C)(C)C)nn1-c1ccccc1 [Compound 274] | 13.426 |  |  | 
27 | CC(C)(CCN1C[C@@H]2C[C@H]1CN2CC(=O)NC12CC3CC(CC(C3)C1)C2)C(F)(F)F [Compound 329] | 59.633 |  |  | 

Row | SMILES | % Inhibition (Single Point Data) [1] [%] | IC50 [2] [µM] | IC50 [µM] | % Inhibition (Single Point Data) [3] [%]
28 | CC(C(=O)Nc1ccc(F)c(OC(F)F)c1)N1CC2CC(C1)N2CC(=O)NC1(C(F)(F)F)CC1 (centres unmarked) [Compound 255] | 66.406 | 0.431 |  | 
29 | Cc1cc(NC(=O)CN2CCN(CC(=O)NC(C)(C)C)CC2)n(C)n1 [Compound 39] |  |  |  | 35.477
30 | Cc1cccc2[nH]c(CN3CC4CC(C3)N4CCC3CCOCC3)nc12 [Compound 204] | 3.6634 |  |  | 
31 | Cn1nc(C2CC2)cc1NC(=O)CN1CC2CCC(C1)N2CC(=O)NC(C)(C)C [Compound 4] | 15.896 |  |  | 
32 | CC1(S(=O)(=O)NCCN2C3CC2CN(Cc2nc4c(Cl)cc(F)cc4[nH]2)C3)CC1 [Compound 142] | 84.115 | 0.223 |  | 
33 | CC(C(=O)Nc1ccc(F)c(Cl)c1)N1CC2CC(C1)N2CC(=O)NC1(C(F)(F)F)CC1 (centres unmarked) [Compound 30] | 63.42 | 0.705 |  | 
34 | CC(C)(C)NC(=O)CN1C[C@@H]2C[C@H]1CN2CC(=O)Nc1cccc(OC(F)F)c1 [Compound 253] | 38.026 | 1.31 |  | 
35 | CC(C)(C)NC(=O)CN1C2CC(CNC(=O)c3cc(F)cc(Cl)c3)CC1C2 (centres unmarked) [Compound 322] | 91.88 | 0.185 |  | 
36 | Cc1cccc2[nH]c(C(C)N3CC4CC(C3)N4CC(=O)NC(C)(C)C)nc12 (centres unmarked) [Compound 199] | 54.078 | 0.864 |  | 
37 | CC(C)(NC(=O)CN1C[C@H]2C[C@@H]1CN2CC(=O)Nc1ccc(F)c(Cl)c1)C(F)(F)F [Compound 27] | 69.274 | 0.457 |  | 
38 | COc1cc(Cl)cc(NC(=O)CN2C[C@@H]3C[C@H]2CN3CC(=O)NC2(C(F)(F)F)CC2)c1 [Compound 339] | 87.995 | 0.249 |  | 
39 | COc1cc(Cl)cc(NC(=O)CN2CC3CC(C2)N3CC(=O)NC(C)(C)C)c1 [Compound 284] | 103.09 |  |  | 
40 | CC(C)(C)NC(=O)CN1C2CC1CN(CC(=O)NC13CC4CC(CC(Cl)(C4)C1)C3)C2 [Compound 345] | 42.634 | 1.19 |  | 
41 | CC(C)(C)NC(=O)CN1C2CCC1CN(CC(=O)NC13CC4CC(CC(C4)C1)C3)C2 [Compound 7] | 64.635 | 0.904 |  | 
42 | CC1(C)CC(CN2C3CC2CN(Cc2nc4c(Cl)cc(F)cc4[nH]2)C3)CCO1 (centres unmarked) [Compound 112] | 82.988 |  |  | 
43 | CC(C)(C(=O)NCCN1C2CC1CN(CC(=O)Nc1cc(F)cc(Cl)c1)C2)C(F)(F)F [Compound 230] | 96.987 |  |  | 
44 | CC(C)(C)NC(=O)CN1C2CCC1CN(Cc1nc3c(C4CC4)cccc3[nH]1)C2 [Compound 203] | 94.049 |  |  | 
45 | Cc1cc(Cl)cc(NC(=O)CN2CC3CC(C2)N3CC(=O)NC2(C(F)(F)F)CC2)c1 [Compound 336] | 87.863 |  |  | 
46 | CC1(C)CC(CN2C3CCC2CN(Cc2nc4c(Cl)cc(F)cc4[nH]2)C3)CCO1 (centres unmarked) [Compound 96] | 93.367 | 0.205 |  | 
47 | O[C@H]1CC[C@@H](OCCN2C3CC2CN(Cc2nc4c(Cl)cc(F)cc4[nH]2)C3)CC1 [Compound 132] | 6.2687 | 5.9 |  | 
48 | O=C(CN1CC2CC1CN2CCNC(=O)C1(C(F)(F)F)CCC1)Nc1cc(F)cc(Cl)c1 (centres unmarked) [Compound 228] | 87.61 | 0.242 |  | 
49 | CC(C)(C)NC(=O)CN1C[C@@H]2C[C@H]1CN2CC(=O)NC12CC3CC(CC(F)(C3)C1)C2 [Compound 300] | 65.343 | 0.612 |  | 
50 | CC(C)(C)NC(=O)CN1C2CC(CC(=O)Nc3cc(F)cc(Cl)c3)CC1C2 (centres unmarked) [Compound 373] |  | 5.82 |  | 
51 | CC(C)(C)C(=O)NCCN1C2CC1CN(Cc1nc3c(Cl)cc(F)cc3[nH]1)C2 [Compound 134] | 94.728 |  |  | 
52 | CC(C)(C)NC(=O)CN1CC[C@@H](CNc2nccc3ccc(Cl)cc23)CC1=O [Compound 46] |  | 0.6 |  | 
53 | COc1ccc(Cl)c2nc(CN3CC4CC(C3)N4CC(=O)NC(C)(C)C)[nH]c12 [Compound 206] | 95.576 | 0.156 |  | 
